Assay results published in patent US20080221195A1, “1,2-DIARYLACETYLENE DERIVATIVES OF ACYLTRYPTOPHANOLS” (priority 2006, published 2008).

Target: T1, human FSH receptor (Homo sapiens, UniProt P23945)
T1 construct: expressed in transfected cells; host or cells: CHO cells (hFSHR clone 16)
T1 sequence (P23945 18-695): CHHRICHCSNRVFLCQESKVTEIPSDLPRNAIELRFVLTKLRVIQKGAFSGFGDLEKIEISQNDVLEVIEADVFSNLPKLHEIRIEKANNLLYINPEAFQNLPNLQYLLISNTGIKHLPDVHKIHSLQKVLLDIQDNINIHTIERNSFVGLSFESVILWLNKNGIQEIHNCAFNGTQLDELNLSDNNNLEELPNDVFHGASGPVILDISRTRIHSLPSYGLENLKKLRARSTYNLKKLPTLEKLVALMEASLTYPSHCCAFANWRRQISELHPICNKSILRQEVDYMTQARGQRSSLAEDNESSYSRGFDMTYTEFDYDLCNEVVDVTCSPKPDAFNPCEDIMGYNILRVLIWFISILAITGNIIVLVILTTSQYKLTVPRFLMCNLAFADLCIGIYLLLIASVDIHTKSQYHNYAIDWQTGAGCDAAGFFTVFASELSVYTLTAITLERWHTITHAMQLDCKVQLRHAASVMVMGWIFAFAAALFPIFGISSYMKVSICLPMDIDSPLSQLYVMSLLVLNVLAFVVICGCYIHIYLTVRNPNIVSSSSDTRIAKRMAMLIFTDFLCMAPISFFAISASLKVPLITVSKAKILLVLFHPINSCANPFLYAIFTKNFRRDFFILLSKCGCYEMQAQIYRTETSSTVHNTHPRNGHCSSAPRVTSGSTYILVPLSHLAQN
Experiment: HTRF assay for measuring cAMP in cells (FSH-antagonistic effect)
Format: cell-based
Settings: hFSHR clone 16 cells (CHO cells stably transfected with the human FSH receptor), in the presence of 1e-9 mol/l hFSH, 37° C. for 2 h
Procedure: HTRF Assay for Measuring cAMP in Cells
The method is based on a competitive immunoassay between native cAMP, which has been produced by the cells, and cAMP which is labelled with cAMPD2 conjugate. The tracer binding was visualized by a monoclonal antibody, anti-cAMP labelled with cryptate [HTRF=homogeneous time-resolved fluorescence].
The specific signal is inversely proportional to the cAMP concentration of the samples employed.
The 665 nm/620 nm fluorescence ratio was evaluated.
Materials used: 96-well plates for the tissue culture, 96-well plates with black edge and black base (e.g. Fluotrac 600 from Greiner), 96-well plates for the substance dilutions of polypropylene and cAMP Femtomolar (4000 wells Kit, CIS Bio International # 62AM5PEJ).
Reagent used: BSA (bovine serum albumin) Fraction V protease-free, IBMX (3-isobutyl-1-methylxanthine), hFSH (human follicle stimulating hormone), Triton X-100 analytical grade, potassium fluoride analytical grade, G 418 (Geneticin) and Accutase.
Buffer 1 (washing and testing buffer) contained PBS, 1 mM CaCl2, 1 mM MgCl2, 0.2% glucose; 0.1% BSA, 1 mM IBMX.
Buffer 2 (2× lysis buffer) contained 1% Triton X-100 in PBS (without CaCl2 and MgCl2).
Buffer 3 (assay buffer) contained 50 mM potassium phosphate buffer (pH 7.0); 800 mM potassium fluoride; 0.2% BSA (always added fresh).
On day 1, the cells were seeded in 96-well plates (3×10^4 cells per well hFSHR clone 16 cells (CHO cells stably transfected with the human FSH receptor in 150 μl of medium). The next day, test substance dilutions were made up. For this purpose, all the substances were diluted in ice-cold buffer 1 (with or without hFSH), and the substance dilutions were placed on ice until applied to the cells. The cell supernatant was then aspirated off, and the cells were washed 2× with 200 μl of buffer 1. The cells were treated with 60 μl of the appropriate substance concentrations at 37° C. for 2 h. The cells were then lysed with 60 μl of buffer 2 (put onto the supernatant) (on a plate shaker at RT for 30 min). The test conjugates (cAMP-D2 and anti-cAMP cryptate, CIS Bio) were diluted in buffer 3 in accordance with the manufacturers' information. The actual mixture for measurement was pipetted into a black 96-well plate (in each case 15 μl of the cell lysate diluted with 35 μl of buffer 1; firstly 25 μl of cAMP-D2 conjugate were pipetted and, after 10 min, 25 μl of the anti-cAMP cryptate were added). This is followed by incubation at RT for 90 minutes. The measurement was carried out in a PheraStar (BMG).
Dose-effect curve (hFSH) for the human receptor: 1e-8, 3e-9, 1e-9, 3e-10, 1e-10, 3e-11, 1e-11, 3e-12 mol/l.
The test substances were employed in suitable dilutions in the absence (test for agonism) and in the presence of 1e-9 mol/l hFSH.
The values of the well ratio were averaged and then entered directly in SigmaPlot versus the concentrations. The maximum and minimum values were determined for each plate, and half the difference is to be regarded as IC50.

Row | IC50 [nM] | SMILES
1 | 25 | CC(C)Oc1ccc(C#Cc2ccccc2C(F)(F)F)cc1C(=O)N[C@@H](CO)Cc1c[nH]c2ccccc12 [Example 119, N-[(R)-2-Hydroxy-1-(1H-indol-3-ylmethyl)-ethyl]-2-isopropoxy-5-(2-trifluoromethyl-phenylethynyl)-benzamide]
2 | 250 | CC(C)Oc1ccc(C#Cc2cccc(S(N)(=O)=O)c2)cc1C(=O)N[C@@H](CO)Cc1c[nH]c2ccccc12 [Example 123, N-[(R)-2-Hydroxy-1-(1H-indol-3-ylmethyl)-ethyl]-2-isopropoxy-5-(3-sulfamoyl-phenylethynyl)-benzamide]
3 | 2000 | CC(C)Oc1ccc(C#Cc2cccc(CN3CCNCC3)c2)cc1C(=O)N[C@@H](CO)Cc1c[nH]c2ccccc12 [Example 141, N-[(R)-1-Hydroxymethyl-2-(1H-indol-3-yl)-ethyl]-2-isopropoxy-5-(3-piperazin-1-ylmethyl-phenylethynyl)-benzamide]
4 | 10 | CC(C)Oc1ccc(C#Cc2ccc(-c3cc[nH]n3)cc2)cc1C(=O)N[C@@H](CO)Cc1c[nH]c2ccccc12 [Example 142, N-[(R)-2-Hydroxy-1-(1H-indol-3-ylmethyl)-ethyl]-2-isopropoxy-5-[4-(1H-pyrazol-3-yl)-phenylethynyl]-benzamide]
5 | 30 | CC(C)Oc1ccc(C#Cc2cccc(-c3nnn[nH]3)c2)cc1C(=O)N[C@@H](CO)Cc1c[nH]c2ccccc12 [Example 148, N-[(R)-2-Hydroxy-1-(1H-indol-3-ylmethyl)-ethyl]-2-isopropoxy-5-[3-(1H-tetrazol-5-yl)-phenylethynyl]-benzamide]
6 | 15 | CC(C)Oc1ccc(C#Cc2ccc3c(c2)C(=O)NC3)cc1C(=O)N[C@@H](CO)Cc1c[nH]c2ccccc12 [Example 155, N-[(R)-1-Hydroxymethyl-2-(1H-indol-3-yl)-ethyl]-2-isopropoxy-5-(3-oxo-2,3-dihydro-1H-isoindol-5-ylethynyl)-benzamide]
7 | 6000 | O=C(N[C@@H](CO)Cc1c[nH]c2ccccc12)c1cccc(C#Cc2ccccn2)c1 [Example 160, N-[(R)-1-Hydroxymethyl-2-(1H-indol-3-yl)-ethyl]-3-pyridin-2-ylethynyl-benzamide]
8 | 15 | COC(=O)CCNC(=O)c1cccc(C#Cc2ccc(OC(C)C)c(C(=O)N[C@@H](CO)Cc3c[nH]c4ccccc34)c2)c1 [Example 165, 3-(3-{3-[(R)-1-Hydroxymethyl-2-(1H-indol-3-yl)-ethylcarbamoyl]-4-isopropoxy-phenylethynyl}-benzoylamino)-propionic acid methyl ester]
9 | 23 | CC(C)Oc1ccc(C#Cc2cccc(C(=O)NCCS(N)(=O)=O)c2)cc1C(=O)N[C@@H](CO)Cc1c[nH]c2ccccc12 [Example 167, N-[(R)-1-Hydroxymethyl-2-(1H-indol-3-yl)-ethyl]-2-isopropoxy-5-[3-(2-sulfamoyl-ethylcarbamoyl)-phenylethynyl]-benzamide]

Further lines, the compound ahead of its results:

Row | SMILES | IC50 [nM]
10 | CC(C)Oc1ccc(C#Cc2ccc(N3CCCC3=O)cc2)cc1C(=O)N[C@@H](CO)Cc1c[nH]c2ccccc12 [Example 124, N-[(R)-1-Hydroxymethyl-2-(1H-indol-3-yl)-ethyl]-2-isopropoxy-5-[4-(2-oxo-pyrrolidin-1-yl)-phenylethynyl]-benzamide] | 80
11 | CC(C)Oc1ccc(C#Cc2ccc3oc(C(=O)O)cc3c2)cc1C(=O)N[C@@H](CO)Cc1c[nH]c2ccccc12 [Example 127, 5-{3-[(R)-1-Hydroxymethyl-2-(1H-indol-3-yl)-ethylcarbamoyl]-4-isopropoxy-phenylethynyl}-benzofuran-2-carboxylic acid] | 90
12 | CC(C)Oc1ccc(C#Cc2ccc(N3CCNCC3)cc2)cc1C(=O)N[C@@H](CO)Cc1c[nH]c2ccccc12 [Example 140, N-[(R)-1-Hydroxymethyl-2-(1H-indol-3-yl)-ethyl]-2-isopropoxy-5-(4-piperazin-1-yl-phenylethynyl)-benzamide] | 3500
13 | CC(C)Oc1ccc(C#Cc2cnc(N3CCOCC3)nc2)cc1C(=O)N[C@@H](CO)Cc1c[nH]c2ccccc12 [Example 145, N-[(R)-1-Hydroxymethyl-2-(1H-indol-3-yl)-ethyl]-2-isopropoxy-5-(2-morpholin-4-yl-pyrimidin-5-ylethynyl)-benzamide] | 300
14 | CC(C)Oc1ccc(C#Cc2ccc(N3CCNC3=O)cc2)cc1C(=O)N[C@@H](CO)Cc1c[nH]c2ccccc12 [Example 146, N-[(R)-1-Hydroxymethyl-2-(1H-indol-3-yl)-ethyl]-2-isopropoxy-5-[4-(2-oxo-imidazolidin-1-yl)-phenylethynyl]-benzamide] | 70
15 | CC(C)Oc1ccc(C#Cc2ccc3c(c2)CCNC3=O)cc1C(=O)N[C@@H](CO)Cc1c[nH]c2ccccc12 [Example 154, N-[(R)-1-Hydroxymethyl-2-(1H-indol-3-yl)-ethyl]-2-isopropoxy-5-(1-oxo-1,2,3,4-tetrahydro-isoquinolin-6-ylethynyl)-benzamide] | 6
16 | CC(C)Oc1ccc(C#Cc2ccc3c(c2)C(=O)NC3=O)cc1C(=O)N[C@@H](CO)Cc1c[nH]c2ccccc12 [Example 156, 5-(1,3-Dioxo-2,3-dihydro-1H-isoindol-5-ylethynyl)-N-[(R)-1-hydroxymethyl-2-(1H-indol-3-yl)-ethyl]-2-isopropoxy-benzamide] | 15
17 | COC(=O)CCCCCNC(=O)c1ccc(C#Cc2ccc(OC(C)C)c(C(=O)N[C@@H](CO)Cc3c[nH]c4ccccc34)c2)cc1 [Example 171, 6-(4-{3-[(R)-1-Hydroxymethyl-2-(1H-indol-3-yl)-ethylcarbamoyl]-4-isopropoxy-phenylethynyl}-benzoylamino)-hexanoic acid methyl ester] | 25
18 | CC(C)Oc1ccc(C#Cc2ccc(C(=O)NCCN3CCNC(=O)C3)cc2)cc1C(=O)N[C@@H](CO)Cc1c[nH]c2ccccc12 [Example 173, N-[(R)-1-Hydroxymethyl-2-(1H-indol-3-yl)-ethyl]-2-isopropoxy-5-{4-[2-(3-oxo-piperazin-1-yl)-ethylcarbamoyl]-phenylethynyl}-benzamide] | 35
19 | CC(C)Oc1ccc(C#Cc2ccc(C(=O)NCCC(N)=O)cc2)cc1C(=O)N[C@@H](CO)Cc1c[nH]c2ccccc12 [Example 177, 5-[4-(2-Carbamoyl-ethylcarbamoyl)-phenylethynyl]-N-[(R)-1-hydroxymethyl-2-(1H-indol-3-yl)-ethyl]-2-isopropoxy-benzamide] | 20
